Test results reported in ChEMBL document CHEMBL4699654, “Computational Fragment-Based Design Facilitates Discovery of Potent and Selective Monoamine Oxidase-B (MAO-B) Inhibitor” (J Med Chem, 2020).

Assays:
[1] = target: T1, Amine oxidase [flavin-containing] A (Homo sapiens, UniProt P21397); experiment: Inhibition of recombinant human MAO-A expressed in Sf9 cells using p-tyramine as substrate preincubated for 15 mins followed by substrate addition for 60 mins by […] assay
T1 sequence (P21397 whole entry): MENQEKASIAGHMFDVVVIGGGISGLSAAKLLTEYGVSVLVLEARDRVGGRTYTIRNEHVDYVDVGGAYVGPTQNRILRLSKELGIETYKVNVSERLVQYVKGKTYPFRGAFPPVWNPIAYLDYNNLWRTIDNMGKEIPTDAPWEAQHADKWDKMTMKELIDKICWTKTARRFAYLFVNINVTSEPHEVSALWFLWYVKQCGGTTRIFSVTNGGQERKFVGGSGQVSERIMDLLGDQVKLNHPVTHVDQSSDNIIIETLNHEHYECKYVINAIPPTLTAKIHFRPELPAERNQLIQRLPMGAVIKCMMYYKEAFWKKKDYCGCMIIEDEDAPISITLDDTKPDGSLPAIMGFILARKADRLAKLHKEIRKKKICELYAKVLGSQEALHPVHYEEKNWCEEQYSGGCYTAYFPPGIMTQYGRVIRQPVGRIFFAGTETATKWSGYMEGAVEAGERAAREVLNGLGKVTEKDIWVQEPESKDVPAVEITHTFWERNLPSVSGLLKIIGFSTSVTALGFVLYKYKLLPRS

[2] = target: T2, Amine oxidase [flavin-containing] B (Homo sapiens, UniProt P27338); experiment: Inhibition of recombinant human MAO-B expressed in Sf9 cells using benzylamine as substrate preincubated for 15 mins followed by substrate addition for 60 mins by Luminex assay; format: cell-based
T2 sequence (P27338 whole entry): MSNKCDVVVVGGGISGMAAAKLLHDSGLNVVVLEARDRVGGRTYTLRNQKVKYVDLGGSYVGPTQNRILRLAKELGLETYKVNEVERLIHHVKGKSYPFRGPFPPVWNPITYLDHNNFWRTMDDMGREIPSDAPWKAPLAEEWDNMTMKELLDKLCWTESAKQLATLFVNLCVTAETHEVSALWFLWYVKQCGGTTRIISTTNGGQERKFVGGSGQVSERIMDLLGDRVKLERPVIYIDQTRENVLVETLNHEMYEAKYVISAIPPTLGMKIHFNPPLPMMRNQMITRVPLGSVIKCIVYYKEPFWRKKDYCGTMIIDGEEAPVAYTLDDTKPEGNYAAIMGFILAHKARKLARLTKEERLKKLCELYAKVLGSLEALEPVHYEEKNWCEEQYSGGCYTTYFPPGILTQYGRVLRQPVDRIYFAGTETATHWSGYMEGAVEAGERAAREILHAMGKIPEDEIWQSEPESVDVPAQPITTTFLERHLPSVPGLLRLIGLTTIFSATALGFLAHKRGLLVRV

Homo sapiens = species: Homo sapiens; experiment: Selectivity index, ratio of IC50 for recombinant human MAO-A to IC50 for recombinant human MAO-B

| Structure (SMILES) | IC50 [1] | IC50 [2] | Ratio IC50 (Homo sapiens) |
| --- | --- | --- | --- |
| C#CCN(Cc1ccc(OCc2cccc(F)c2)cc1C)[C@@H](C)C(N)=O | 6400 nM | 320 nM | 20 |
| C#CCN(Cc1ccc(OCc2cccc(F)c2)cc1)[C@@H](C)C(N)=O | 7790 nM | 530 nM | 15 |
| C[C@H](NCc1ccc(OCc2cccc(F)c2)cc1C1CC1)C(N)=O | 75200 nM | 1660 nM | 45 |
| NC(=O)[C@@H]1CCN1Cc1ccc(OCc2cccc(F)c2)cc1F | 18600 nM | 26 nM | 715 |
| C[C@H](NCc1ccc(OCc2cccc(F)c2)cc1Cl)C(N)=O | 12000 nM | 28 nM | 427 |
| C#CCN(C)C(=O)[C@H](C)NCc1ccc(OCc2cccc(F)c2)cc1 |  | > 10000 nM |  |
| CC1(C)C[C@@H](C(N)=O)N(Cc2ccc(OCc3cccc(F)c3)cc2F)C1 |  | 6350 nM |  |
| Cc1cc(OCc2cccc(F)c2)ccc1CN[C@@H](C)C(N)=O | > 10000 nM | 69 nM | > 140 |
| C[C@H](NCc1ccc(OCc2cccc(F)c2)cc1F)C(N)=O | > 10000 nM | 61 nM | > 163 |
| C[C@H](NCc1ccc(OCc2cccc(F)c2)cc1)C(=O)NCCN1CCOCC1 |  | > 10000 nM |  |
| C#CCN(Cc1ccc(OCc2cccc(F)c2)cc1F)[C@@H](C)C(N)=O | 8710 nM | 93 nM | 94 |
| C#CCN(Cc1ccc(OCc2cccc(F)c2)cc1Cl)[C@@H](C)C(N)=O | 5590 nM | 68 nM | 82 |

Results, then the molecule that gave them:

| IC50 [1] | IC50 [2] | Ratio IC50 (Homo sapiens) | Structure (SMILES) |
| --- | --- | --- | --- |
| 2130 nM | 35 nM | 61 | NC(=O)[C@@H]1CCN1Cc1ccc(OCc2cccc(F)c2)cc1Cl |
| 8650 nM | 258 nM | 34 | Cc1cc(OCc2cccc(F)c2)ccc1CN1CC[C@H]1C(N)=O |
| > 10000 nM | 1420 nM | > 7 | NC(=O)C1CN(Cc2ccc(OCc3cccc(F)c3)cc2)C1 |
| 26800 nM | 21 nM | 1280 | NC(=O)[C@@H]1CCN1Cc1ccc(OCc2cccc(F)c2)cc1 |
| 14500 nM | 1070 nM | 14 | NC(=O)[C@@H]1CC(F)(F)CN1Cc1ccc(OCc2cccc(F)c2)cc1 |
| 18000 nM | 46 nM | 391 | NC(=O)C1CCN1Cc1ccc(OCc2cccc(F)c2)cc1 (racemic) |
| 34200 nM | 204 nM | 168 | NC(=O)[C@@H]1CCCN1Cc1ccc(OCc2cccc(F)c2)cc1 |
| 57600 nM | 2870 nM | 20 | NC(=O)[C@@H]1COCCN1Cc1ccc(OCc2cccc(F)c2)cc1F |
|  | 5410 nM |  | NC(=O)[C@@H]1COCCN1Cc1ccc(OCc2cccc(F)c2)cc1 |
| 17500 nM | 1420 nM | 12 | CC1(C)C[C@@H](C(N)=O)N(Cc2ccc(OCc3cccc(F)c3)cc2)C1 |
